Measurements: US20060107336A1, “Nonbacterial prostatitis model animal” (priority 2002, published 2006)
Read-outs that look alike come from different tables or passages of the source.

Experiments:
[1] = test system: bladder function of male Wistar rats; details: 8th day of rearing
[2] = test system: prostate tissue of male Wistar rats
Protocol: 18 male Wistar rats at the age of 12-weeks-old were divided into 3 groups (test group, comparative group, and negative control group; 6 rats per group). The right inguinal region of each test group rat was incised under ether anesthesia to expose the prostate. Beneath the prostatic capsule of the right lateral lobe was injected 100 μl of sterilized 0.4 N hydrochloric acid physiological saline (a solution prepared by diluting hydrochloric acid with physiological saline to a concentration of 0.4 N, the same applies hereinbelow). The right inguinal region of each comparative group rat was incised in the same manner under ether anesthesia, and 100 μl of 0.4 N hydrochloric acid physiological saline was injected into the right vas deferens thus exposed. The peritoneum and the skin of the rats were sutured with a suture thread. To prevent operational infection, a kanamycin-containing aqueous solution was sprayed onto the site of the incision, and a physiological saline solution containing cefazolin sodium was injected into the femoral muscle in an amount of 7 mg/kg body weight. The control group refers to untreated rats (normal rats) subjected to neither an incisional operation nor hydrochloric acid injection.
The prostate, bladder and urethra were sampled from the rats of respective groups prepared in 1-1) above (test group, comparative group, and control group) to prepare tissue specimens thereof for the evaluation of change in tissue.
Specifically, the rats of the test group and the comparative group were euthanized by exsanguination under ether anesthesia 6 hours (2 rats per group), 4 days (2 rats per group), or 8 days (2 rats per group) after hydrochloric acid injection. The prostate, bladder and urethral tissues were taken out as a lump, and the tissues were fixed with 4% paraformaldehyde. The rats of the control group were subjected to the same treatment.
The frozen blocks were sliced in a cryostat to a thickness of 5 to 6 μm to prepare slide preparations of the tissue sections. The slide preparations were stained with hematoxylin-eosin (H.E), and the appearance of the tissues was observed under a microscope.
In the figures, sample code N refers to the tissue samples obtained from the control group (nonhydrochloric acid-injected rats), and sample code P refers to the tissue samples obtained from the test group (rats injected with hydrochloric acid beneath the prostatic capsules).
In the figures, sample code Y refers to tissue samples obtained from the comparative group (rats injected with hydrochloric acid into the vas deferens).

[3] = 0.1, 0.2 and 0.4 N beneath prostatic capsule
[4] = 100 μl 0.2 N beneath prostatic capsule
[5] = 100 μl 0.4 N beneath prostatic capsule
[6] = 100 μl 0.4 N into the vas deferens, 6 hours after injection

Cl [hydrochloric acid]
correlation between concentration and change in the weight of the prostate [1, 3]: no evidence of correlation
ratio of bladder weight to body weight compared with the control group [1, 3]: comparable or significantly higher
ratio of prostate ventral lobe weight to body weight compared with the control group [1, 3]: comparable or significantly higher
weight of the bladder in relation to concentration injected [1, 3]: increased in accordance with the concentration
volume of residual urine compared with the control group ([1]; 100 μl 0.1 N beneath prostatic capsule): no residual urine
urination interval compared with the control group [1, 4]: significantly shorter
volume of residual urine compared with the control group [1, 4]: significantly higher
volume of urine per urination compared with the control group [1, 4]: smaller
urination interval compared with the control group [1, 5]: significantly shorter
volume of urine per urination compared with the control group [1, 5]: smaller
urethral and bladder tissue damage extending from the prostate [2, 5]: no evidence of tissue damage
localized bleeding and nerve cell tigrolysis in the stroma of the prostate dorsolateral lobes ([2]; 100 μl 0.4 N beneath prostatic capsule, 6 hours after injection): slight (+) to moderate (++)
hyperplasia and fibrosis of the fibroblast, and inflammatory cellular infiltration in the stroma of the prostate dorsolateral lobes ([2]; 100 μl 0.4 N beneath prostatic capsule, 4 days after injection): moderate (++) to severe (+++)
prostate tissue damage ([2]; 100 μl 0.4 N beneath prostatic capsule, 8 days after injection): still observable
loss of glandular epithelial cells, peeling of epithelium, degeneration/necrosis, and presence of erythrocytes at the glandular cavities of the prostate dorsolateral lobes ([2]; 100 μl 0.4 N injected beneath prostatic capsule of right lateral lobe, 6 hours after injection): slight (+) to moderate (++) to severe (+++)
epithalaxia in the glandular cavities of the prostate dorsolateral lobes ([2]; 100 μl 0.4 N injected into the vas deferens (comparative group), 6 hours after injection): severe (+++)
bleeding in the stromata of the glandular tissues of the ampulla ductus deferentis [2, 6]: severe (+++)
epithalaxia, degeneration/necrosis and bleeding in the glandular cavities of the ampulla ductus deferentis [2, 6]: severe (+++)
localized bleeding in the stroma of the prostate dorsolateral lobes [2, 6]: severe (+++)
prostate tissue damage ([2]; 100 μl 0.4 N into the vas deferens, 4 days after injection): did not exhibit such prostate tissue damage
damage at the glandular tissues of the ampulla ductus deferentis ([2]; 100 μl 0.4 N into the vas deferens, at least 4 days after injection): did not exhibit such damage
development of prostatitis, pathohistological point of view ([2]; injected into the vas deferens of rats (animal model (5))): only to a very slight extent
